Reference: patent EP4268823A1, “COMPOUND FOR TREATING NEUROINFLAMMATION” (Universitätsklinikum Hamburg-Eppendorf, priority 2022, dated 2023)

Target: T1, G9a (Mus musculus, UniProt Q9Z148)
T1 construct: UNC0642 pre-treated primary neuronal cultures compared to respective controls; endogenous in cells; host or cells: primary mouse cortical neuronal cultures (C57BL/6J embryos)
T1 sequence (Q9Z148 1-1263): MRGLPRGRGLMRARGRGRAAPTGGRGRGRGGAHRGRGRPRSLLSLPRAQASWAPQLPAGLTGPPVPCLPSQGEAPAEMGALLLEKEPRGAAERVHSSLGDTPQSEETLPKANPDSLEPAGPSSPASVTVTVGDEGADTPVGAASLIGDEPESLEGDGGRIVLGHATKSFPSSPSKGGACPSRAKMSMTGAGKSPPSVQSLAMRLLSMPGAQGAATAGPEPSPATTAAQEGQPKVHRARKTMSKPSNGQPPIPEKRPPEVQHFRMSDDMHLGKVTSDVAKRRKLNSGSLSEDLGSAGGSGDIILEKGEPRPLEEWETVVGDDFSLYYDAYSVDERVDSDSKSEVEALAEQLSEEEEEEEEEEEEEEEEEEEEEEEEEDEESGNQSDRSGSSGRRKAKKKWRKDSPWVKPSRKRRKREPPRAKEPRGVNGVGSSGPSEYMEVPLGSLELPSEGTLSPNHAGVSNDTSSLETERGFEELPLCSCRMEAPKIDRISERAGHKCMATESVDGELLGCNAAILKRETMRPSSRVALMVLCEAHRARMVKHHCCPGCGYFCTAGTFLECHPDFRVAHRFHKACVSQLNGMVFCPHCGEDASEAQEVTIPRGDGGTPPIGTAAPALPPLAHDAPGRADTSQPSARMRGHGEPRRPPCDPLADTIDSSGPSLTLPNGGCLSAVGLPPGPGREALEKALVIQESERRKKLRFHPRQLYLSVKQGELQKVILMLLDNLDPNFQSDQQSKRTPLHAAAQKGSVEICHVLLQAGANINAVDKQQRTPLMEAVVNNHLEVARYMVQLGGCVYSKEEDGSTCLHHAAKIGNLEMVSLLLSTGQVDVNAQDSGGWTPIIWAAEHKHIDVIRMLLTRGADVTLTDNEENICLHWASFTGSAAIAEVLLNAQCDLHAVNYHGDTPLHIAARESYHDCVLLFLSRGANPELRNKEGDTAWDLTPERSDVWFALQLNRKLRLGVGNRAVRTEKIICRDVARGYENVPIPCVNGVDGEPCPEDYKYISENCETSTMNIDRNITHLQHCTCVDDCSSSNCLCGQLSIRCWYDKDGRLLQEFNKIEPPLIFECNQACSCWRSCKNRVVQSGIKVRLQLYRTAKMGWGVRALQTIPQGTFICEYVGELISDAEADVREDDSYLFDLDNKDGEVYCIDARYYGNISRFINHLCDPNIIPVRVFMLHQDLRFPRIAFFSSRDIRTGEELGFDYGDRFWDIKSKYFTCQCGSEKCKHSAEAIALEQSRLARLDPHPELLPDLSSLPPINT
Experiment: Flow cytometry of H3K9me2 in spinal cord neuronal nuclei of EAE mice
Format: in vivo
Conditions: EAE animals, 5 mg kg-1 UNC0642

Compound: COc1cc2c(NC3CCN(C(C)C)CC3)nc(N3CCC(F)(F)CC3)nc2cc1OCCCN1CCCC1 [UNC0642, 2-(4,4-difluoropiperidin-1-yl)-6-methoxy-N-[1-(propan-2-yl)piperidin-4-yl]-7-[3-(pyrrolidin-1-yl)propoxy]quinazolin-4-amine]
- H3K9me2 levels in neuronal nuclei: complete normalization of H3K9me2 levels
